Data: ChEMBL document CHEMBL5214923, “Contemporary mTOR inhibitor scaffolds to diseases breakdown: A patent review (2015-2021)” (Eur J Med Chem, 2022)

Legend:
mTORC1 [1] = biological target: T1, mTORC1 (Homo sapiens, UniProt P42345+Q8N122+Q9BVC4); assay: Inhibition of mTORC1 in human MDA-MB-468 cells assessed as measuring phosphorylated 4EBP1 incubated for 2 to 4 hrs by AlphaLISA assay; format: cell-based
mTORC1 [2] = biological target: T1, mTORC1; assay: Inhibition of mTORC1 in human MDA-MB-468 cells assessed as measuring phosphorylated P70S6K incubated for 2 to 4 hrs by AlphaLISA assay; format: cell-based
mTORC2 = mTORC2 (Homo sapiens, UniProt P42345+Q6R327+Q9BPZ7+Q9BVC4); assay: Inhibition of mTORC2 in human MDA-MB-468 cells assessed as measuring phosphorylated AKT incubated for 2 to 4 hrs by AlphaLISA assay; format: cell-based
Chain of mTORC2 (Q6R327 whole entry, other chains not shown): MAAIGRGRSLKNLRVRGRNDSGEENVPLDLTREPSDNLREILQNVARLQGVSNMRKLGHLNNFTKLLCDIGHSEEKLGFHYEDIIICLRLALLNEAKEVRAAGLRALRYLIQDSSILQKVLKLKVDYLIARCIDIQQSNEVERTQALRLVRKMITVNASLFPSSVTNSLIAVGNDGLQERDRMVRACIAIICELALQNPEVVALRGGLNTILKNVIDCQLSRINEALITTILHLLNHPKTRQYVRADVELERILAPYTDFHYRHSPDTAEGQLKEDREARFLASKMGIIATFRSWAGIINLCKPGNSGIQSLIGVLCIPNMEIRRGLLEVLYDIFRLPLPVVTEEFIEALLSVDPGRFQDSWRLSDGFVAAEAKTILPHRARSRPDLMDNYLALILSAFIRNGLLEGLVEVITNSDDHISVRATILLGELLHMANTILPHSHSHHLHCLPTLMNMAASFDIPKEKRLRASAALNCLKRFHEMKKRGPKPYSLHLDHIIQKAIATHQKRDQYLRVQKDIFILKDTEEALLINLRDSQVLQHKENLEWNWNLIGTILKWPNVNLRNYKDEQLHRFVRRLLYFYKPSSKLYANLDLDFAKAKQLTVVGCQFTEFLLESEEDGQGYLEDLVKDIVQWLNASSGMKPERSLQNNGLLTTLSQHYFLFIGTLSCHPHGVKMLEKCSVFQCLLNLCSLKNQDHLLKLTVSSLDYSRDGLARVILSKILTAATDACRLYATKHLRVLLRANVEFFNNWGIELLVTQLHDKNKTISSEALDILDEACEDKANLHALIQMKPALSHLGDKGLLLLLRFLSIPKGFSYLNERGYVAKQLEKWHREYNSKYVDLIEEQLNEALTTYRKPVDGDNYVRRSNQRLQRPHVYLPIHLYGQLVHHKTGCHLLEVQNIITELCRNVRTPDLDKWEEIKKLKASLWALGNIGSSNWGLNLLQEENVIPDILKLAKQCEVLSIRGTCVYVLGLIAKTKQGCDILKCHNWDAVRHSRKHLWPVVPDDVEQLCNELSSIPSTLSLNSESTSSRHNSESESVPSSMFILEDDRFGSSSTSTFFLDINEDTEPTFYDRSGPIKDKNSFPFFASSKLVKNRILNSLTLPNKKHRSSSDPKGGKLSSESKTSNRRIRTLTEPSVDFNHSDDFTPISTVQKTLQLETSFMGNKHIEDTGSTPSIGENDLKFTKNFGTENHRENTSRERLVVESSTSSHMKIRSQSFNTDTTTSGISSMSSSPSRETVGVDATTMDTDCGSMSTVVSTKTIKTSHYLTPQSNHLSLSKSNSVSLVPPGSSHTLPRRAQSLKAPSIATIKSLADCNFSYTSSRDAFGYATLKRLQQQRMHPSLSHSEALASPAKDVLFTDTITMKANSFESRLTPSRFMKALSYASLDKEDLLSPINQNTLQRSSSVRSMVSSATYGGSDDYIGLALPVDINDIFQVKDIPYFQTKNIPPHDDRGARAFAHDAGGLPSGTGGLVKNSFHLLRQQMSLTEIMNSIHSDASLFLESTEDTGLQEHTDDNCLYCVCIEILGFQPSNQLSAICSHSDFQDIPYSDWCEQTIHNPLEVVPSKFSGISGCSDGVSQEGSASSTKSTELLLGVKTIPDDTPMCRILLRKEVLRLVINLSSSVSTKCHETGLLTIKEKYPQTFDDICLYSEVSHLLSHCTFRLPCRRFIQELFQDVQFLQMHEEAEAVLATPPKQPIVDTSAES
Chain of mTORC2 (Q9BPZ7 2-522 limits assumed, other chains not shown): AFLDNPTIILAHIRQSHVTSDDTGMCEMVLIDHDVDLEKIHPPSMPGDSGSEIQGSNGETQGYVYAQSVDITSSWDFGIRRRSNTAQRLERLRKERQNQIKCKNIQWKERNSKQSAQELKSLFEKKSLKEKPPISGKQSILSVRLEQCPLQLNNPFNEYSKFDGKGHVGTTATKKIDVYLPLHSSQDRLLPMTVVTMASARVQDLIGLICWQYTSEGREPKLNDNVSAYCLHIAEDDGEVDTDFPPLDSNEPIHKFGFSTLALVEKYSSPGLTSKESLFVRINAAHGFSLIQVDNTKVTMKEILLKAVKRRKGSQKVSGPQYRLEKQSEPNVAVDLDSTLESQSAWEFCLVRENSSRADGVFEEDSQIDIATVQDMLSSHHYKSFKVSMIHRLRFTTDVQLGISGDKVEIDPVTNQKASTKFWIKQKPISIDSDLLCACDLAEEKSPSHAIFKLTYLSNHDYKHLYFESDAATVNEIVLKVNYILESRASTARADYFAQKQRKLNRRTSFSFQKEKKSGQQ
Chain of mTORC2 (Q9BVC4 whole entry, other chains not shown): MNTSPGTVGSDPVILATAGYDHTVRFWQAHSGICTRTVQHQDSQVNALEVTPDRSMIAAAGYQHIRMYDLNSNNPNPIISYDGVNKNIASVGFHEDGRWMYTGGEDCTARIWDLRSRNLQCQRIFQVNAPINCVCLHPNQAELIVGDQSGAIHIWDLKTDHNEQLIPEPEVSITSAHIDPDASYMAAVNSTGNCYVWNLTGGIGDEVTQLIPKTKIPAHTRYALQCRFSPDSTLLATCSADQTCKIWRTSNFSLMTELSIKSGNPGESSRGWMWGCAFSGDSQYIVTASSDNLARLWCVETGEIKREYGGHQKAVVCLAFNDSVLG

[3] = biological target: PI3-kinase p110-alpha/p85-alpha (Homo sapiens, UniProt P42336); assay: Inhibition of PI3K p110alpha/p85alpha (unknown origin) using PIP2 as substrate preincubated for 15 mins followed by substrate addition measured after 1 hr in presence of ATP by TR-FRET assay; format: protein-complex assay
mTORC1 [4] = biological target: T1, mTORC1; assay: Inhibition of mTORC1 (unknown origin) assessed as measuring phosphorylated 4EBP1 level at 1 uM relative to control; format: protein-complex assay
mTORC1 [5] = biological target: T1, mTORC1; assay: Inhibition of mTORC1 (unknown origin) assessed as measuring phosphorylated p7OS6K level at 0.2 uM relative to control; format: protein-complex assay
[6] = biological target: T2, Phosphatidylinositol 4,5-bisphosphate 3-kinase catalytic subunit delta isoform (Homo sapiens, UniProt O00329); assay: Inhibition of human PI3Kdelta preincubated for 15 mins followed by ATP addition measured after 1 hr by TR-FRET assay
T2 sequence (O00329 whole entry): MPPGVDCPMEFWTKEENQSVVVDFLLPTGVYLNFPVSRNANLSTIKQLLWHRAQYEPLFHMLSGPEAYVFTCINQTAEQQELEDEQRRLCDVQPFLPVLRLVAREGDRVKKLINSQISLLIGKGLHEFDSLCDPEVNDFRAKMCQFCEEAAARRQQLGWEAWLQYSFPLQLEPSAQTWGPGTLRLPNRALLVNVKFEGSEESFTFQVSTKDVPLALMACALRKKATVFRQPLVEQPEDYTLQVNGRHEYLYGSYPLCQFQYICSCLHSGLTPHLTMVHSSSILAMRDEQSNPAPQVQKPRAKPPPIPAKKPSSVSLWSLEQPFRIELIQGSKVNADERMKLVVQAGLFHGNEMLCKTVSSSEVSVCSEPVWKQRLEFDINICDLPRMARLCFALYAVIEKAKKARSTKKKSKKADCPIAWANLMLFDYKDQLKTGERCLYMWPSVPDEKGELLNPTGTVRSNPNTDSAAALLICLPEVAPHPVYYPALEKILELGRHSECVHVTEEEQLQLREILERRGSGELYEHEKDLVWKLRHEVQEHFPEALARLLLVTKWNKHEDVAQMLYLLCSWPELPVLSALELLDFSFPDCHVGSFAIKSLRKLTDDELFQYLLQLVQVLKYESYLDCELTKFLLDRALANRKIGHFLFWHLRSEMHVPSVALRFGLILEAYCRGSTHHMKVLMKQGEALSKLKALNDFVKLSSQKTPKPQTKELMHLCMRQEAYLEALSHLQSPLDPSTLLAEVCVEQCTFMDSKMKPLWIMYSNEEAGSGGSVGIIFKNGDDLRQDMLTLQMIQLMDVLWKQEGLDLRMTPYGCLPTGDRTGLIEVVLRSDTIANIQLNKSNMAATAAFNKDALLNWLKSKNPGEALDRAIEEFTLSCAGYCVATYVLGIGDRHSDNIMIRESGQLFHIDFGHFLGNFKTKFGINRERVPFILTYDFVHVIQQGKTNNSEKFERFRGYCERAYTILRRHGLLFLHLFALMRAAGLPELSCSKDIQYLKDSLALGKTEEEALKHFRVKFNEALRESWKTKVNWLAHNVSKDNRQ

mTORC1 [7] = biological target: T1, mTORC1; assay: Inhibition of mTORC1 (unknown origin); format: protein-complex assay
[8] = biological target: Peptidyl-prolyl cis-trans isomerase FKBP1A (Homo sapiens, UniProt P62942); assay: Binding affinity to FKBP12 (unknown origin) assessed as inhibition constant
Chain of Peptidyl-prolyl cis-trans isomerase FKBP1A (P62942 whole entry): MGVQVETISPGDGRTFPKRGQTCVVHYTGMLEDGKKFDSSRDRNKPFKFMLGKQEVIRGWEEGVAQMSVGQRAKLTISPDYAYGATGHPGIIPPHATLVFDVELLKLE

T1 sequence (Q8N122 whole entry, looked up, other chains not shown): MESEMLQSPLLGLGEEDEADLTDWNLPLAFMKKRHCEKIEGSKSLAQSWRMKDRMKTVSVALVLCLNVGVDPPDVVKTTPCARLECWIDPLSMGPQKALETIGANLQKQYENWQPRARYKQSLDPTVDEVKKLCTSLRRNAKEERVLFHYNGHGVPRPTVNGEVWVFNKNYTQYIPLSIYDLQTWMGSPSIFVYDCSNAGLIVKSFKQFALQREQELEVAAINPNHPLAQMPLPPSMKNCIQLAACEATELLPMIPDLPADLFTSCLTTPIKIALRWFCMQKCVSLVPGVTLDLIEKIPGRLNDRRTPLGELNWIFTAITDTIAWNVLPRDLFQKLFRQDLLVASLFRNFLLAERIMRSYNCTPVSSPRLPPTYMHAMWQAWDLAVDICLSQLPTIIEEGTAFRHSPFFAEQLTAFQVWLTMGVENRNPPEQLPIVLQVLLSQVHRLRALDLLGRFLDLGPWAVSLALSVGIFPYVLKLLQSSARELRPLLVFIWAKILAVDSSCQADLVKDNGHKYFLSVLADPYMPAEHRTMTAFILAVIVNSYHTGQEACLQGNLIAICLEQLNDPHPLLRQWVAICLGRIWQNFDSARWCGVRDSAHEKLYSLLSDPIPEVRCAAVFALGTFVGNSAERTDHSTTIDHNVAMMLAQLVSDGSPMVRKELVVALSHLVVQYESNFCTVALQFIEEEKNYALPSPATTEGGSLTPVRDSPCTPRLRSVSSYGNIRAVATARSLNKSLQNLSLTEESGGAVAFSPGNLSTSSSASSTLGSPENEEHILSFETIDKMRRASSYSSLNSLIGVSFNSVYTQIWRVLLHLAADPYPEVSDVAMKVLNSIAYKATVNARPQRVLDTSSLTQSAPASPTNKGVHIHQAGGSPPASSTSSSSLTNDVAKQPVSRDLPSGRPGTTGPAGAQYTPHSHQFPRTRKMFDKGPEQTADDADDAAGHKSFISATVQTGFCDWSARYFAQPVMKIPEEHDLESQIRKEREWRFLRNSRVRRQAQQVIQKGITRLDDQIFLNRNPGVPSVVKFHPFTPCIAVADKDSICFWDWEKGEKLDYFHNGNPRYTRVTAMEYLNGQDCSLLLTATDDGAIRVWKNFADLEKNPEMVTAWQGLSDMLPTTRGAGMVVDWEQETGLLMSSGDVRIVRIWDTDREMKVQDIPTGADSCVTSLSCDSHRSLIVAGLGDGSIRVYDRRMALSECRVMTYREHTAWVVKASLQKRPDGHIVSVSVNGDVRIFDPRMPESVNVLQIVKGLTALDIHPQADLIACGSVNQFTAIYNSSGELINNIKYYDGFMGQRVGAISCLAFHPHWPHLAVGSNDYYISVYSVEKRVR
T1 sequence (Q9BVC4 whole entry, looked up, other chains not shown): as the sequence (Q9BVC4 whole entry, other chains not shown) above

Compound `COc1cccc2cc(-c3nc([C@H]4CC[C@H](C(=O)NCCOCCOCCNC(=O)CCOCCOCCOCCOCCn5cc(CCCCO[C@@H]6CC[C@@H](C[C@@H](C)[C@@H]7C[C@@H](OC)[C@H](C)/C=C(\C)[C@@H](O)[C@@H](OC)C(=O)[C@H](C)C[C@H](C)C\C=C/C=C/C=C(\C)[C@@H](OC)C[C@@H]8CC[C@@H](C)[C@@](O)(O8)C(=O)C(=O)N8CCCC[C@H]8C(=O)O7)C[C@H]6OC)nn5)CC4)n4ncnc(N)c34)[nH]c12` has an IC50 (mTORC1 [1]) of no more than 3.16 nM, an IC50 (mTORC1 [2]) of no more than 1 nM and an IC50 (mTORC2) greater than 31.6 nM.

Compound `C[C@H]1COC[C@H](C)N1c1nc(Oc2ccc(C(=O)N(C)C)cc2)nc(-c2cnc(N)s2)n1` has an IC50 [3] of less than 1000 nM.

`CO[C@H]1C[C@@H]2CC[C@@H](C)[C@@](O)(O2)C(=O)C(=O)N2CCCC[C@H]2C(=O)O[C@H]([C@H](C)C[C@@H]2CC[C@@H](OCCCN3CCOC(C)(C)C3)[C@H](OC)C2)C[C@@H](O)[C@H](C)/C=C(\C)[C@@H](O)[C@@H](OC)C(NOCC(=O)NCCOCCOCCOCCOCCOCCOCCC(=O)N2CCc3cc(Cn4nc(-c5ccc6oc(N)nc6c5)c5c(N)ncnc54)ccc3C2)[C@H](C)C[C@H](C)C\C=C/C=C/C=C/1C` (stereo partly specified) was tested, and the IC50 (mTORC1 [1]) was no more than 3.16 nM, the IC50 (mTORC1 [2]) was no more than 1 nM and the IC50 (mTORC2) was 1000 nM.

`CNC(=O)c1cccc(-c2ccc3c(N4CCOC[C@@H]4C)nc(N4CCO[C@@H]5CCCC[C@@H]54)nc3n2)c1` gave an inhibition (mTORC1 [4]) of 77.8% and an inhibition (mTORC1 [5]) of 109%.

`CC(=O)N1CCC(n2nc(-c3cc4c(Cl)ccc(O)c4[nH]3)c3c(N)ncnc32)CC1` gave an IC50 [6] of 100 nM and an IC50 (mTORC1 [7]) of less than 5 nM.

For `CO[C@@H]1C[C@@H]2CC[C@@H](C)[C@@](O)(O2)C(=O)C(=O)N2CCCC[C@H]2C(=O)OC([C@H](C)C[C@@H]2CC[C@@H](O)[C@H](O)C2)C/C=C(\C)[C@@H](O)CC(=O)[C@H](C)C[C@H](C)/C=C/C=C/C=C/1C` (stereo partly specified), the Ki [8] was 4.2 nM.

Work on `CO[C@H]1C[C@@H]2CC[C@@H](C)[C@@](O)(O2)C(=O)C(=O)N2CCCC[C@H]2C(=O)O[C@H]([C@H](C)C[C@@H]2CC[C@@H](OCCCCc3cn(CCOCCOCCOCCOCCOCCOCCC(=O)NCCCCn4nc(-c5cccc(C(=O)NC6=NCCS6)c5)c5c(N)ncnc54)nn3)[C@H](OC)C2)CC(=O)[C@H](C)/C=C(\C)[C@@H](O)[C@@H](OC)C(=O)[C@H](C)C[C@H](C)C\C=C/C=C/C=C/1C` yielded an IC50 (mTORC1 [1]) of no more than 3.16 nM, an IC50 (mTORC1 [2]) of no more than 1 nM and an IC50 (mTORC2) greater than 31.6 nM.

`CO[C@H]1C[C@@H]2CC[C@@H](C)[C@@](O)(O2)C(=O)C(=O)N2CCCC[C@H]2C(=O)O[C@H]([C@H](C)C[C@@H]2CC[C@@H](OCCCN3CCOC(C)(C)C3)[C@H](OC)C2)CC[C@H](C)/C=C(\C)[C@@H](O)[C@@H](OC)C(NOCC(=O)NCCOCCOCCOCCOCCOCCOCCC(=O)N2CCc3cc(Cn4nc(-c5ccc6oc(N)nc6c5)c5c(N)ncnc54)ccc3C2)[C@H](C)C[C@H](C)C\C=C/C=C/C=C/1C` (stereo partly specified) was tested, and the IC50 (mTORC1 [1]) was no more than 3.16 nM, the IC50 (mTORC1 [2]) was no more than 1 nM and the IC50 (mTORC2) was 1000 nM.

`COc1cccc2cc(-c3nc([C@H]4CC[C@H](C(=O)NCCOCCOCCNC(=O)CCOCCOCCOCCOCCn5cc(CCCCO[C@@H]6CC[C@@H](C[C@@H](C)[C@@H]7CC(=O)[C@H](C)/C=C(\C)[C@@H](O)[C@@H](OC)C(=O)[C@H](C)C[C@H](C)C\C=C/C=C/C=C(\C)[C@@H](OC)C[C@@H]8CC[C@@H](C)[C@@](O)(O8)C(=O)C(=O)N8CCCC[C@H]8C(=O)O7)C[C@H]6OC)nn5)CC4)n4ncnc(N)c34)[nH]c12` showed an IC50 (mTORC1 [1]) of no more than 3.16 nM, an IC50 (mTORC1 [2]) of no more than 1 nM and an IC50 (mTORC2) greater than 31.6 nM.

`C\C1=C/C=C/C=C/[C@@H](C)C[C@@H](C)C(=O)C[C@H](O)/C(C)=C/CC([C@H](C)C[C@H]2CC[C@H](O)CC2)OC(=O)[C@@H]2CCCCN2C(=O)C(=O)[C@]2(O)O[C@@H](CC[C@H]2C)C[C@H]1O` (stereo partly specified) was tested, and the Ki [8] was 7.7 nM.

`CN(C)C(=O)c1ccc(Oc2nc(-c3cnc4[nH]ccc4c3)nc(N3CCOCC3)n2)c(F)c1` showed an IC50 [3] of less than 1000 nM.

`C[C@H]1COCCN1c1nc(Oc2ccc(C(=O)N(C)C)cc2)nc(-c2cnc(N)s2)n1` gave an IC50 [3] of less than 1000 nM.

With `Nc1ncnc2c1c(-c1cc3cccc(O)c3[nH]1)nn2C1CCOCC1` the IC50 [6] was 100 nM and the IC50 (mTORC1 [7]) was less than 5 nM.

Work on `Nc1ncnc2c1c(-c1cc3cc(O)ccc3[nH]1)nn2C1CCOCC1` yielded an IC50 [6] of 50 nM and an IC50 (mTORC1 [7]) of less than 5 nM.

`Cc1cc(Oc2nc(-c3ccc(N)nc3)nc(N3CCOCC3)n2)ccc1C(=O)N(C)C` showed an IC50 [3] of less than 1000 nM.

With `CO[C@H]1C[C@@H]2CC[C@@H](C)[C@@](O)(O2)C(=O)C(=O)N2CCCC[C@H]2C(=O)O[C@H]([C@H](C)C[C@@H]2CC[C@@H](OCCCN3CCOC(C)(C)C3)[C@H](OC)C2)C[C@@H](O)[C@H](C)/C=C(\C)[C@@H](O)[C@@H](OC)C(NOCC(=O)NCCOCCOCCOCCOCCOCCOCCC(=O)N2CCC(n3nc(-c4ccc5oc(N)nc5c4)c4c(N)ncnc43)CC2)[C@H](C)C[C@H](C)C\C=C/C=C/C=C/1C` (stereo partly specified) the IC50 (mTORC1 [1]) was no more than 3.16 nM, the IC50 (mTORC1 [2]) was no more than 1 nM and the IC50 (mTORC2) was 1000 nM.

In the case of `CN(C)C(=O)c1ccc(Oc2nc(-c3cnc(N)cc3C(F)(F)F)nc(N3CCOCC3)n2)c(F)c1`, the IC50 [3] is reported as less than 1000 nM.

Work on `CO[C@@H]1C[C@@H]2CC[C@@H](C)[C@@](O)(O2)C(=O)C(=O)N2CCCC[C@H]2C(=O)OC([C@H](C)C[C@H]2CC[C@H](O)CC2)C/C=C(\C)[C@@H](O)CC(=O)[C@H](C)C[C@H](C)/C=C/C=C/C=C/1C` (stereo partly specified) yielded a Ki [8] of 7.9 nM.

Compound `CO[C@@H]1C[C@@H]2CC[C@@H](C)[C@@](O)(O2)C(=O)C(=O)N2CCCC[C@H]2C(=O)OC([C@H](C)C[C@@H]2CC[C@@H](O)[C@H](OC)C2)CC(O)CC(=O)[C@H](C)/C=C(\C)[C@@H](O)CC(=O)[C@H](C)C[C@H](C)/C=C/C=C/C=C/1C` (stereo partly specified) has a Ki [8] of 6.5 nM.

Work on `CO[C@H]1C[C@@H]2CC[C@@H](C)[C@@](O)(O2)C(=O)C(=O)N2CCCC[C@H]2C(=O)O[C@H]([C@H](C)C[C@@H]2CC[C@@H](O)[C@H](OC)C2)C[C@@H](O)[C@H](C)/C=C(\C)[C@@H](O)[C@@H](OC)/C(=N\OCc2cn(-c3cnc(N4CCN(c5ncc(C(=O)NCCOCCC(=O)NCCCCn6nc(-c7ccc8oc(N)nc8c7)c7c(N)ncnc76)cn5)CC4)nc3)nn2)[C@H](C)C[C@H](C)C\C=C/C=C/C=C/1C` yielded an IC50 (mTORC1 [1]) of no more than 3.16 nM, an IC50 (mTORC1 [2]) of no more than 1 nM and an IC50 (mTORC2) greater than 31.6 nM.

With `CNC(=O)c1cccc(-c2ccc3c(N4CCOC[C@@H]4C)nc(N4CCOc5ccccc54)nc3n2)c1` the inhibition (mTORC1 [4]) was 61% and the inhibition (mTORC1 [5]) was 87.7%.

Compound `CO[C@H]1C[C@@H]2CC[C@@H](C)[C@@](O)(O2)C(=O)C(=O)N2CCCC[C@H]2C(=O)O[C@H]([C@H](C)C[C@@H]2CC[C@@H](OCc3cccc(-c4cnc(N5CCN(C(=O)CCc6cn(CCOCCOCCC(=O)NCCCCn7nc(-c8ccc9nc(N)oc9c8)c8c(N)ncnc87)nn6)CC5)nc4)c3)[C@H](OC)C2)CC(=O)[C@H](C)/C=C(\C)[C@@H](O)[C@@H](OC)C(=O)[C@H](C)C[C@H](C)C\C=C/C=C/C=C/1C` has an IC50 (mTORC1 [1]) of no more than 3.16 nM, an IC50 (mTORC1 [2]) of no more than 1 nM and an IC50 (mTORC2) greater than 31.6 nM.

For `CO[C@@H]1C[C@@H]2CC[C@@H](C)[C@@](O)(O2)C(=O)C(=O)N2CCCC[C@H]2C(=O)OC([C@H](C)C[C@@H]2CC[C@@H](O)[C@H](OC)C2)C/C=C(\C)[C@@H](O)CC(=O)[C@H](C)C[C@H](C)/C=C/C=C/C=C/1C` (stereo partly specified), the Ki [8] was 5.9 nM.

`CNC(=O)c1cc(-c2ccc3c(N4CCOC[C@@H]4C)nc(N4CCO[C@@H]5CCC[C@@H]54)nc3n2)ccc1F` was tested, and the inhibition (mTORC1 [4]) was 60.8% and the inhibition (mTORC1 [5]) was 77.5%.
